System: chronic respiratory disease (CRD)
Assay: Treatment of chronic respiratory disease (CRD) in spontaneously hypertensive (SH) rats; as to Dead animals: tested at 0.001 ppm; as to Ill animals: tested at 0.001 ppm; as to Total number of rats: tested at 0.001 ppm; as to Well animals: tested at 0.001 ppm; as to animals showing a trace of secretions around their necks: tested at 0.001 ppm; as to rats alive in the treated group: tested at 0.001 ppm
Assay type: in vivo, rat (SH)
Protocol: Treatment of Chronic Respiratory Disease (CRD) in laboratory rats: chronic respiratory disease symptoms include coughing and wheezing accompanied by nasal secretions.
One-half of a colony of spontaneously hypertensive (SH) rats was treated with 2,4-dimethylphenol in their drinking water at a concentration of one part per billion. The other half of this colony was given only tap water, and both groups observed for 76 days. The second experiment was with a highly inbred strain (GM) of rats that were about to expire, because of chronic respiratory infection. […] Both groups, the SH rats and the GM rats, were not breeding because of their infections and were in seriously poor health.
They were only 42 SH rats left in the colony. They were divided into two groups of 21 rats each. Approximately one-half the sick rats were selected for each group. […] This was best observed as a brown secretion from the nose and wiped around the neck by the rat's front paws. The experimental group was treated continuously with one part per billion (1 PPB) of 2,4-dimethylphenol in their drinking fluid. Certain of these rats were so ill that they were near death when the experiment was started and they died in spite of treatment.

[1] = day 14, 1 PPB in drinking water, SH rats
[2] = day 22, 1 PPB in drinking water, SH rats
[3] = day 29, 1 PPB in drinking water, SH rats
[4] = day 36, 1 PPB in drinking water, SH rats
[5] = day 43, 1 PPB in drinking water, SH rats

Cc1ccc(O)c(C)c1 [2,4-dimethylphenol]
Dead animals [1]: 1
Ill animals [1]: 8
Well animals [1]: 12
Total number of rats (day 14, 1 PPB in drinking water, SH rats, 21 at start): 21
Dead animals [2]: 1
Ill animals [2]: 7
Well animals [2]: 12
Total number of rats (day 22, 1 PPB in drinking water, SH rats, 21 at start): 20
Dead animals [3]: 2
Ill animals [3]: 4
Well animals [3]: 13
Total number of rats (day 29, 1 PPB in drinking water, SH rats, 21 at start): 19
Ill animals [4]: 5
Well animals [4]: 12
Total number of rats (day 36, 1 PPB in drinking water, SH rats, 21 at start): 17
Ill animals [5]: 5
Well animals [5]: 12
Total number of rats (day 43, 1 PPB in drinking water, SH rats, 21 at start): 17
Well animals (day 76, 1 PPB in drinking water, SH rats): 12
Total number of rats (day 76, 1 PPB in drinking water, SH rats, 21 at start): 17
Ill animals (day 76, 1 PPB in drinking water, SH rats, minimal infection): 5
infection in the five ill rats (day 76, visual observation, 1 PPB, SH rats): minimal infection from visual observation
rats alive in the treated group (end of 76 days, 1 PPB in drinking water, SH rats, 21 at start): 17
animals showing a trace of secretions around their necks (end of 76 days, of 17 rats alive, 1 PPB, SH rats): 5
breeding and colony health (more than 2 years, 1 PPB in drinking fluid, combined SH groups): These animals began to breed, and the colony is now healthy

Source: US4084006A, “Method of using dialkylphenols an antiviral agents” (priority 1977, dated 1978)
